Experimental data: patent publication US9738634B2, “Heterocyclic amide compound and herbicide” (SYNGENTA PARTICIPATIONS AG, priority 2013, dated 2017)

How the values were obtained:
Type in all cases: in vivo
Settings in all cases: treatment dosage 320 g/ha
barnyard grass [1] = experiment: Test Example 1: weedkilling efficacy, preemergent weed treatment in the submerged state; A: barnyard grass
Procedure, shortened: (§1)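 Pots of alluvial soil flooded 4 cm deep, sown with barnyard grass, bulrush and oval-leafed pondweed and transplanted with 2.5-leaf rice. Emulsified compound applied to the water surface on sowing day at stated g/ha; greenhouse 25–30 °C, effects assessed 3 weeks after treatment.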

bulrush [2] = experiment: Test Example 1: weedkilling efficacy, preemergent weed treatment in the submerged state; B: bulrush
Procedure, shortened: as §1

oval-leafed pondweed [3] = experiment: Test Example 1: weedkilling efficacy, preemergent weed treatment in the submerged state; C: oval-leafed pondweed
Procedure, shortened: as §1

transplanted rice = experiment: Test Example 1: preemergent weed treatment in the submerged state, effect on crop; a: transplanted rice
Procedure, shortened: as §1

barnyard grass [4] = experiment: Test Example 2: weedkilling efficacy, growth period weed treatment in the submerged state; A: barnyard grass
Procedure, shortened: (§2)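 Barnyard grass, bulrush and oval-leafed pondweed sown in alluvial soil under 4 cm flooding, greenhouse 25 to 30° C. At 1-2 leaf stage, water-diluted emulsion applied to the water surface at stated g/ha dosages; effects scored 3 weeks later.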

bulrush [5] = experiment: Test Example 2: weedkilling efficacy, growth period weed treatment in the submerged state; B: bulrush
Procedure, shortened: as §2

oval-leafed pondweed [6] = experiment: Test Example 2: weedkilling efficacy, growth period weed treatment in the submerged state; C: oval-leafed pondweed
Procedure, shortened: as §2

crabgrass [7] = experiment: Test Example 3: weedkilling efficacy through soil treatment; D: crabgrass
Procedure, shortened: (§3)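 Crop and weed responses were judged three weeks after a uniform surface spray of the water-diluted emulsion at the given g/ha rate. Seeds sat beneath about 1.5 cm of sterilized diluvial soil, and boxes stood in a greenhouse at 25 to 30° C.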

green foxtail [8] = experiment: Test Example 3: weedkilling efficacy through soil treatment; E: green foxtail
Procedure, shortened: as §3

barnyard grass [9] = experiment: Test Example 3: weedkilling efficacy through soil treatment; F: barnyard grass
Procedure, shortened: as §3

wild oat [10] = experiment: Test Example 3: weedkilling efficacy through soil treatment; G: wild oat
Procedure, shortened: as §3

black-grass [11] = experiment: Test Example 3: weedkilling efficacy through soil treatment; H: black-grass
Procedure, shortened: as §3

Italian ryegrass [12] = experiment: Test Example 3: weedkilling efficacy through soil treatment; I: Italian ryegrass
Procedure, shortened: as §3

common wind-grass [13] = experiment: Test Example 3: weedkilling efficacy through soil treatment; J: common wind-grass
Procedure, shortened: as §3

Indian mallow [14] = experiment: Test Example 3: weedkilling efficacy through soil treatment; K: Indian mallow
Procedure, shortened: as §3

redroot pigweed [15] = experiment: Test Example 3: weedkilling efficacy through soil treatment; L: redroot pigweed
Procedure, shortened: as §3

fig-leafed goosefoot [16] = experiment: Test Example 3: weedkilling efficacy through soil treatment; M: fig-leafed goosefoot
Procedure, shortened: as §3

chickweed [17] = experiment: Test Example 3: weedkilling efficacy through soil treatment; N: chickweed
Procedure, shortened: as §3

catchweed [18] = experiment: Test Example 3: weedkilling efficacy through soil treatment; O: catchweed
Procedure, shortened: as §3

birds-eye speedwell = experiment: Test Example 3: weedkilling efficacy through soil treatment; p: birds-eye speedwell
Procedure, shortened: as §3

directly sown rice [19] = experiment: Test Example 3: soil treatment, effect on crop; b: directly sown rice
Procedure, shortened: as §3

corn [20] = experiment: Test Example 3: soil treatment, effect on crop; c: corn
Procedure, shortened: as §3

soybean [21] = experiment: Test Example 3: soil treatment, effect on crop; d: soybean
Procedure, shortened: as §3

wheat [22] = experiment: Test Example 3: soil treatment, effect on crop; e: wheat
Procedure, shortened: as §3

beet [23] = experiment: Test Example 3: soil treatment, effect on crop; f: beet
Procedure, shortened: as §3

rapeseed [24] = experiment: Test Example 3: soil treatment, effect on crop; g: rapeseed
Procedure, shortened: as §3

crabgrass [25] = experiment: Test Example 4: weedkilling efficacy by foliar treatment; D: crabgrass
Procedure, shortened: (§4)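 Seeds are spot-sown into sterilized diluvial soil and covered with about 1.5 cm of soil. After 14 days' greenhouse growth at 25 to 30° C, plants are sprayed on stems and leaves with diluted emulsion at the stated g/ha rate, then scored at 3 weeks.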

green foxtail [26] = experiment: Test Example 4: weedkilling efficacy by foliar treatment; E: green foxtail
Procedure, shortened: as §4

barnyard grass [27] = experiment: Test Example 4: weedkilling efficacy by foliar treatment; F: barnyard grass
Procedure, shortened: as §4

wild oat [28] = experiment: Test Example 4: weedkilling efficacy by foliar treatment; G: wild oat
Procedure, shortened: as §4

black-grass [29] = experiment: Test Example 4: weedkilling efficacy by foliar treatment; H: black-grass
Procedure, shortened: as §4

Italian ryegrass [30] = experiment: Test Example 4: weedkilling efficacy by foliar treatment; I: Italian ryegrass
Procedure, shortened: as §4

common wind-grass [31] = experiment: Test Example 4: weedkilling efficacy by foliar treatment; J: common wind-grass
Procedure, shortened: as §4

Indian mallow [32] = experiment: Test Example 4: weedkilling efficacy by foliar treatment; K: Indian mallow
Procedure, shortened: as §4

redroot pigweed [33] = experiment: Test Example 4: weedkilling efficacy by foliar treatment; L: redroot pigweed
Procedure, shortened: as §4

fig-leafed goosefoot [34] = experiment: Test Example 4: weedkilling efficacy by foliar treatment; M: fig-leafed goosefoot
Procedure, shortened: as §4

chickweed [35] = experiment: Test Example 4: weedkilling efficacy by foliar treatment; N: chickweed
Procedure, shortened: as §4

catchweed [36] = experiment: Test Example 4: weedkilling efficacy by foliar treatment; O: catchweed
Procedure, shortened: as §4

directly sown rice [37] = experiment: Test Example 4: foliar treatment, effect on crop; b: directly sown rice
Procedure, shortened: as §4

corn [38] = experiment: Test Example 4: foliar treatment, effect on crop; c: corn
Procedure, shortened: as §4

soybean [39] = experiment: Test Example 4: foliar treatment, effect on crop; d: soybean
Procedure, shortened: as §4

wheat [40] = experiment: Test Example 4: foliar treatment, effect on crop; e: wheat
Procedure, shortened: as §4

beet [41] = experiment: Test Example 4: foliar treatment, effect on crop; f: beet
Procedure, shortened: as §4

rapeseed [42] = experiment: Test Example 4: foliar treatment, effect on crop; g: rapeseed
Procedure, shortened: as §4

SMILES: CC1=C(c2ccccc2)C(=O)N(C(C)(C)C(=O)Nc2cc(C)cc(Cl)n2)CO1 [B-2-43]
- A (barnyard grass) weedkilling efficacy grade (barnyard grass [1]): 5 (weed kill ratio 90% or more, (practically complete withering))
- B (bulrush) weedkilling efficacy grade (bulrush [2]): 5 (weed kill ratio 90% or more, (practically complete withering))
- C (oval-leafed pondweed) weedkilling efficacy grade (oval-leafed pondweed [3]): 5 (weed kill ratio 90% or more, (practically complete withering))
- a (transplanted rice) effect on crop grade (transplanted rice): 3 (weed kill ratio 40% or more, less than 70%)
- A (barnyard grass) weedkilling efficacy grade (barnyard grass [4]): 5 (weed kill ratio 90% or more, (practically complete withering))
- B (bulrush) weedkilling efficacy grade (bulrush [5]): 5 (weed kill ratio 90% or more, (practically complete withering))
- C (oval-leafed pondweed) weedkilling efficacy grade (oval-leafed pondweed [6]): 5 (weed kill ratio 90% or more, (practically complete withering))
- D (crabgrass) weedkilling efficacy grade (crabgrass [7]): 5 (weed kill ratio 90% or more, (practically complete withering))
- E (green foxtail) weedkilling efficacy grade (green foxtail [8]): 4 (weed kill ratio 70% or more, less than 90%)
- F (barnyard grass) weedkilling efficacy grade (barnyard grass [9]): 5 (weed kill ratio 90% or more, (practically complete withering))
- G (wild oat) weedkilling efficacy grade (wild oat [10]): 5 (weed kill ratio 90% or more, (practically complete withering))
- H (black-grass) weedkilling efficacy grade (black-grass [11]): 5 (weed kill ratio 90% or more, (practically complete withering))
- I (Italian ryegrass) weedkilling efficacy grade (Italian ryegrass [12]): 5 (weed kill ratio 90% or more, (practically complete withering))
- J (common wind-grass) weedkilling efficacy grade (common wind-grass [13]): 5 (weed kill ratio 90% or more, (practically complete withering))
- K (Indian mallow) weedkilling efficacy grade (Indian mallow [14]): 0 (weed kill ratio 5% or less (practically no effect))
- L (redroot pigweed) weedkilling efficacy grade (redroot pigweed [15]): 3 (weed kill ratio 40% or more, less than 70%)
- M (fig-leafed goosefoot) weedkilling efficacy grade (fig-leafed goosefoot [16]): 3 (weed kill ratio 40% or more, less than 70%)
- N (chickweed) weedkilling efficacy grade (chickweed [17]): 4 (weed kill ratio 70% or more, less than 90%)
- O (catchweed) weedkilling efficacy grade (catchweed [18]): 4 (weed kill ratio 70% or more, less than 90%)
- P (birds-eye speedwell) weedkilling efficacy grade (birds-eye speedwell): 5 (weed kill ratio 90% or more, (practically complete withering))
- b (directly sown rice) effect on crop grade (directly sown rice [19]): 3 (weed kill ratio 40% or more, less than 70%)
- c (corn) effect on crop grade (corn [20]): 0 (weed kill ratio 5% or less (practically no effect))
- d (soybean) effect on crop grade (soybean [21]): 2 (weed kill ratio 20% or more, less than 40%)
- e (wheat) effect on crop grade (wheat [22]): 1 (weed kill ratio 5% or more, less than 20%)
- f (beet) effect on crop grade (beet [23]): 4 (weed kill ratio 70% or more, less than 90%)
- g (rapeseed) effect on crop grade (rapeseed [24]): 4 (weed kill ratio 70% or more, less than 90%)
- D (crabgrass) weedkilling efficacy grade (crabgrass [25]): 5 (weed kill ratio 90% or more, (practically complete withering))
- E (green foxtail) weedkilling efficacy grade (green foxtail [26]): 5 (weed kill ratio 90% or more, (practically complete withering))
- F (barnyard grass) weedkilling efficacy grade (barnyard grass [27]): 5 (weed kill ratio 90% or more, (practically complete withering))
- G (wild oat) weedkilling efficacy grade (wild oat [28]): 3 (weed kill ratio 40% or more, less than 70%)
- H (black-grass) weedkilling efficacy grade (black-grass [29]): 5 (weed kill ratio 90% or more, (practically complete withering))
- I (Italian ryegrass) weedkilling efficacy grade (Italian ryegrass [30]): 5 (weed kill ratio 90% or more, (practically complete withering))
- J (common wind-grass) weedkilling efficacy grade (common wind-grass [31]): 5 (weed kill ratio 90% or more, (practically complete withering))
- K (Indian mallow) weedkilling efficacy grade (Indian mallow [32]): 3 (weed kill ratio 40% or more, less than 70%)
- L (redroot pigweed) weedkilling efficacy grade (redroot pigweed [33]): 3 (weed kill ratio 40% or more, less than 70%)
- M (fig-leafed goosefoot) weedkilling efficacy grade (fig-leafed goosefoot [34]): 4 (weed kill ratio 70% or more, less than 90%)
- N (chickweed) weedkilling efficacy grade (chickweed [35]): 3 (weed kill ratio 40% or more, less than 70%)
- O (catchweed) weedkilling efficacy grade (catchweed [36]): 1 (weed kill ratio 5% or more, less than 20%)
- b (directly sown rice) effect on crop grade (directly sown rice [37]): 5 (weed kill ratio 90% or more, (practically complete withering))
- c (corn) effect on crop grade (corn [38]): 3 (weed kill ratio 40% or more, less than 70%)
- d (soybean) effect on crop grade (soybean [39]): 4 (weed kill ratio 70% or more, less than 90%)
- e (wheat) effect on crop grade (wheat [40]): 0 (weed kill ratio 5% or less (practically no effect))
- f (beet) effect on crop grade (beet [41]): 3 (weed kill ratio 40% or more, less than 70%)
- g (rapeseed) effect on crop grade (rapeseed [42]): 4 (weed kill ratio 70% or more, less than 90%)
